Assay results as given in patent publication EP3056202A1, “BENZOPYRROLIDONE DERIVATIVES POSSESSING ANTIVIRAL AND ANTICANCER PROPERTIES” (Max-Planck-Gesellschaft zur Förderung der Wissenschaften …, priority 2015, dated 2016).
≈ marks a conversion by molar mass, not a printed value.

What was measured:
human Akt1 kinase = human Akt1 kinase (Homo sapiens, UniProt P31749); assay: In vitro Akt1 assay (IMAP fluorescence polarization, phosphorylation of TAMRA-peptide); format: biochemical; conditions: 40 µM ATP; for inhibition at 12.5 µM: 12.5 uM compound, read-out: Akt1 inh% @12.5 uM
Description: The inhibition of Akt1 by the compounds described in the present invention were determined measuring the phosphorylation of a fluorescently-labeled peptide (TAMRA-peptide) by human Akt1 kinase by fluorescent polarization using a commercially available IMAP Screening Express Assay Kit (Molecular Devices).
Akt1 kinase assays were performed in low protein binding 384-well plates (Corning). Test compounds were diluted in 100% DMSO to 5 mM stock concentration and then further dilutions were made in H2O or 100% DMSO to desirable concentrations.
Each reaction consisted of 5 nM enzyme: Akt1 kinase, 400 nM TAMRA-peptide (5-TAMRA-GRTGRRNSI-COOH; Genecust), 40 µM ATP and kinase buffer: 20 mM MES pH6, 1 mM DTT, 10 mM MgCl2, 2 mM MnCl2, 0.01 V/V% TritonX (all reagents from Sigma-Aldrich).
(§1) For each reaction, 4 or 6 µl containing TAMRA-peptide, ATP and kinase buffer were combined with 2 µl diluted compound in H2O or 0.02 µl compound in 100% DMSO. The kinase reaction was started by the addition of 2 µl diluted enzyme. The reaction was allowed to run for 1 hour at room temperature. The reaction was stopped by adding 15 µl IMAP beads (1:400 beads in progressive (75% buffer A, 25% buffer B) 1x buffer). After an additional hour, fluorescent polarization (Ex: 550-10 nm, Em: 590-10 nm, Dich: 561 nm) was measured using an Analyst GT (Molecular Devices).

[1] = tested on: HKE3 human colon carcinoma cell line; assay: In vitro growth inhibition of colon carcinoma cells, HKE3 (CellTiter-Glo); format: cell-based; conditions: 72 hours incubation
[2] = tested on: HCT-116 human colon carcinoma cell line; assay: In vitro growth inhibition of colon carcinoma cells, HCT-116 (CellTiter-Glo); format: cell-based; conditions: 72 hours incubation, read-out: HCT116 EC50
human Clk1 kinase = molecular target: T1, human Clk1 kinase (Homo sapiens, UniProt P49759); assay: In vitro Clk1 assay (IMAP fluorescence polarization); format: biochemical; conditions: 0.45 µM ATP
T1 construct: Each reaction consisted of 4 nM enzyme: Clk1 kinase domain
Description: The activity of the compounds described in the present invention can be determined by the following kinase assay, which measures the phosphorylation of a fluorescently-labeled peptide by human Clk1 kinase by fluorescent polarization using a commercially available IMAP Screening Express Assay Kit (Molecular Devices).
Clk1 kinase assays were performed in low protein binding 384-well plates (Corning). Test compounds were diluted in 100% DMSO to 5 mM stock concentration and then further dilutions were made in H2O or 100% DMSO to desirable concentrations.
Each reaction consisted of 4 nM enzyme: Clk1 kinase domain, 400 nM TAMRA-AFRREWSPGKEAKK-NH2 (Genecust), 0.45 µM ATP (Sigma) and kinase buffer: 20 mM TRIS pH 8, 1 mM DTT, 0.4 mM MgCl2, 0.4 mM MnCl2, 0.01 V/V% Tween20 (all reagents from Sigma-Aldrich)
as §1, with “(1:600” for “(1:400”, “(80 %” for “(75%”, “20%” for “25%”

human Ack1 kinase = human Ack1 kinase (Homo sapiens, UniProt Q07912); assay: In vitro Ack1 assay (TranScreener ADP2 FP, generation of ADP); format: biochemical; conditions: 12.5 uM compound; 3.5 µM ATP; read-out: Ack1 inh% @12.5 uM
Description: The activity of the compounds described in the present invention can be determined by the following kinase assay, which measures the generation of ADP by human Ack1 kinase by fluorescent polarization using a commercially available TranScreener ADP2 FP Assay Kit (BellBrook Labs).
Ack1 kinase assays were performed in low protein binding 384-well plates (Corning). Test compounds were diluted in 100% DMSO to 5 mM stock concentration and then further dilutions were made in H2O or 100% DMSO to desirable concentrations.
Each reaction consisted of 5 nM enzyme: Ack1 kinase, Poly Glu-Tyr (4:1) (Sigma), 3.5 µM ATP and kinase buffer: 20 mM HEPES pH7.5, 1 mM DTT, 2 mM MgCl2, 0.4 mM MnCl2, 0.01 V/V% Tween20 (all reagents from Sigma-Aldrich)
For each reaction, 4 or 6 µl containing Poly Glu-Tyr (4:1), ATP and kinase buffer were combined with 2 µl diluted compound in H2O or 0.02 µl compound in 100% DMSO. The kinase reaction was started by the addition of 2 µl diluted enzyme. The reaction was allowed to run for 1 hour at room temperature. The reaction was stopped by addition of 8 µl ADP detection mixture (1 x) (1 x Detection buffer + 4.78 µg/ml ADP2 Ab + 4 nM ADP Alexa633 Tracer). After an additional hour, fluorescent polarization (Ex: 630-35 nm, Em: 680-30 nm, Dich: 650 nm) was measured using an Analyst GT (Molecular Devices).

[3] = tested on: HepG2 hepatoblastomaderived cell line; assay: In vitro growth inhibition, HepG2 (CellTiter-Glo); format: cell-based; conditions: Homo sapiens, 72 hours incubation
[4] = tested on: H1 N1 influenza virus strain A/WSN/33; assay: microbe, parasite or virus in culture; format: cell-based; conditions: 36 h, read-out: Influenza replication IC50
[5] = tested on: A549 human lung carcinoma cells; assay: Cell-based EC50 determination, A549 cells (CellTiter-Glo cell viability); conditions: A549, 24 h, read-out: A549 EC50 24h
Description: A549 human lung carcinoma cells were cultured in RPMI 1640 medium (Sigma) supplemented with 10% fetal bovine serum (Sigma) and Antibiotic-Antimycotic (Sigma) in tissue culture flasks at 37°C in a humidified 5% CO2 atmosphere. Cells were routinely assayed for mycoplasma contamination.
Two thousand cells were plated in 384-well tissue culture plates, and treated after 24 hours with a 10-point dilution series of the compounds (1.5 nM-30 uM), using the vehicle, DMSO as control. Cells were incubated for 24 hours after which the relative cell density was determined by CellTiter-Glo Luminescent Cell Viability Assay (Promega). This method determines the number of metabolically active cells in the culture based on quantitation of the ATP present. The luminescent signal was measured with an Analyst GT multimode reader (Molecular Devices). […]

physchem = format: physicochemical; conditions: kinetic from dmso stock
Description: Samples were diluted in DMSO (control), phosphate buffer pH = 7.4 and pH = 2.0, from 5mM stock solutions (solved in DMSO), with a 120 µM final concentration. The samples were incubated for 24 hours at room temperature followed by 30 minutes centrifugation at 3700 rpm. 40 µl of the supernatants were injected into HPLC (Waters 2795 Alliance HPLC equipped with Waters 996 PDA Detector (HPLC column: Waters XBridge, RP C18, 3.5 µm, 4.6 mm x 50 mm; gradient MeCN/H2O, containing 0.1% HCOOH: 5% MeCN (0.5 min), 5% to 95% MeCN (5 min), 95% MeCN (0.5 min); flow rate: 2.0 ml/min)) and the AUC values (measured on sample specific wavelength) of the buffered samples were divided by the AUC values (same wavelength as buffered samples') of the DMSO control samples. Table 3: Solubility in water for several compounds according to general formula (I)

Chain of human Ack1 kinase (Q07912 whole entry): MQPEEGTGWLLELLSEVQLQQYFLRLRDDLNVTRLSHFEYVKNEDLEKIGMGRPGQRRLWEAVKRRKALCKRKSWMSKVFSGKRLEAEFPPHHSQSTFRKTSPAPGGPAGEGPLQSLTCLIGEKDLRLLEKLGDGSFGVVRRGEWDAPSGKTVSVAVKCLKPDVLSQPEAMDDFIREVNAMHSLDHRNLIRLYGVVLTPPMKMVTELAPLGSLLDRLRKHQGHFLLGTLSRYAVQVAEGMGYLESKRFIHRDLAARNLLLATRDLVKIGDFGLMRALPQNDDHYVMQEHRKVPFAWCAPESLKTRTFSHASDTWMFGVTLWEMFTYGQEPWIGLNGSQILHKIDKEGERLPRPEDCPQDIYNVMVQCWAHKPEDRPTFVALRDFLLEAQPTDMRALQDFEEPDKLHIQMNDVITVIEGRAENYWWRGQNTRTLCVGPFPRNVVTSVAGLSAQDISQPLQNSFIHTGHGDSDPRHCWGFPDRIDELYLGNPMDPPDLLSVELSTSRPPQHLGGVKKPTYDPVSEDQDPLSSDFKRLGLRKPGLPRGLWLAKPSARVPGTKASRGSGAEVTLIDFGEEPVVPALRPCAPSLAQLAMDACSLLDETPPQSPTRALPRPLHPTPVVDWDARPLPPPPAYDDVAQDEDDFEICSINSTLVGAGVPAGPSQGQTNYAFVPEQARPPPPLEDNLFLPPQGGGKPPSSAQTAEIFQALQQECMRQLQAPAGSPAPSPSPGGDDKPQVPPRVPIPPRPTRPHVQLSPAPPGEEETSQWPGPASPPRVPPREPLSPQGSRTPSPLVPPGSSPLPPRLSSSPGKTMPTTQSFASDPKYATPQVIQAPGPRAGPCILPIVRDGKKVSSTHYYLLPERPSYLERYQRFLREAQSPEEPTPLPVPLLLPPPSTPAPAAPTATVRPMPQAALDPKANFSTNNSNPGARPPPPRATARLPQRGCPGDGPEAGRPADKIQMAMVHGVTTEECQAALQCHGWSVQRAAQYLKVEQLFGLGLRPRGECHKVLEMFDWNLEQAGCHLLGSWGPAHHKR
Chain of human Akt1 kinase (P31749 whole entry): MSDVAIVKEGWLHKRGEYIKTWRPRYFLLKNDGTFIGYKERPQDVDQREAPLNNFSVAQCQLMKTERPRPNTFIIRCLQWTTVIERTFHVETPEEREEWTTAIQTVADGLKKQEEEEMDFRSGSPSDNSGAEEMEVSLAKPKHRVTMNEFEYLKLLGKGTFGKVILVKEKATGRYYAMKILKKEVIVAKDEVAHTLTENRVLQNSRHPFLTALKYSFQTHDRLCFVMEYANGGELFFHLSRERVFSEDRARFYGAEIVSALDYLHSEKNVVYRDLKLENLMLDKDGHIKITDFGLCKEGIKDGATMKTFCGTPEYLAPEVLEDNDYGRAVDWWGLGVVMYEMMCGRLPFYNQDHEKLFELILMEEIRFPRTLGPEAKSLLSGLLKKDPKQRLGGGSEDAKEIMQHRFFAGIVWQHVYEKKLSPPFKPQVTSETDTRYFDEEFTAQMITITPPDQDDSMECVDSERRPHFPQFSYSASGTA
T1 sequence (P49759 161-477 limits assumed): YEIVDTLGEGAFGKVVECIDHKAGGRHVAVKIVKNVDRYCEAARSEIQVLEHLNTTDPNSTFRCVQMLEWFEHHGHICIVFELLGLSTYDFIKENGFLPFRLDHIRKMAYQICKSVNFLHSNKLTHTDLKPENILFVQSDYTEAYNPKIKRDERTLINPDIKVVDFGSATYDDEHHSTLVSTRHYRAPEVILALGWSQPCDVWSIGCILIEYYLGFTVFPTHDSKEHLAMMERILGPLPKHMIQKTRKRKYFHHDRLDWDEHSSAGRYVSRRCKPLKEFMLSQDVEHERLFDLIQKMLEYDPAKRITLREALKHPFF

| Structure (SMILES) | inhibition at 12.5 µM (human Akt1 kinase) | IC50 (human Akt1 kinase) | EC50 [1] | EC50 [2] | IC50 (human Clk1 kinase) | inhibition at 12.5 µM (human Ack1 kinase) | EC50 [3] | IC50 [4] | EC50 [5] | solubility at 24 h (physchem; pH 2, aqueous buffer) | solubility at 24 h (physchem; pH 7.4, aqueous buffer) |
| --- | --- | --- | --- | --- | --- | --- | --- | --- | --- | --- | --- |
| CC[C@@H](NC(=O)c1ccc2c(c1)/C(=C(/Nc1cccc(CN3CCCCC3)c1)c1ccccc1)C(=O)N2)c1ccccc1 [Compound 12, (3Z)-2-oxo-3-(phenyl{[3-(piperidin-1-ylmethyl)phenyl]amino}methylene)-N-[(1R)-1-phenylpropyl]indoline-5-carboxamide] | 75.1% | 7980 nM | 20 nM | 30 nM | 210 nM | 18.1% | 3520 nM | 10 nM | 6890 nM | 110 to 120 µM (≈ 62.8 to 68.5 µg/mL) | < 10 µM |
| C[C@@H](NC(=O)c1ccc2c(c1)/C(=C(/Nc1cccc(CN3CCCCC3)c1)c1ccccc1)C(=O)N2)c1ccccc1 [Compound 13, (3Z)-2-oxo-N-[(1R)-1-phenylethyl]-3-(phenyl{[3-(piperidin-1-ylmethyl)phenyl]amino}methylene)indoline-5-carboxamide] | 60.6% | 5940 nM | 140 nM | 170 nM | 30 nM | 13.7% | 5660 nM | 160 nM | 9340 nM | 110 to 120 µM (≈ 61.2 to 66.8 µg/mL) | < 10 µM |
| CC[C@@H](NC(=O)c1ccc2c(c1)/C(=C(/Nc1ccc(CN3CCCCC3)cc1)c1ccccc1)C(=O)N2)c1ccccc1 [Compound 18, (3Z)-2-oxo-3-(phenyl{[4-(piperidin-1-ylmethyl)phenyl]amino}methylene)-N-[(1R)-1-phenylpropyl]indoline-5-carboxamide] | 92.1% | 570 nM | 4 nM | 10 nM | 30 nM | 85.9% | 310 nM | < 10 nM | > 30000 nM | 110 to 120 µM (≈ 62.8 to 68.5 µg/mL) | < 10 µM |
| O=C1Nc2ccc(C(=O)NCc3ccccc3)cc2/C1=C(/Nc1ccc(CN2CCCCC2)cc1)c1ccccc1 [Compound 20, (3Z)-N-benzyl-2-oxo-3-(phenyl{[4-(piperidin-1-ylmethyl)phenyl]amino}methylene)indoline-5-carboxamide] | 91.6% | 910 nM | 10 nM | 20 nM | 10 nM | 72.7% | 790 nM | < 10 nM | > 30000 nM | 110 to 120 µM (≈ 59.7 to 65.1 µg/mL) | < 10 µM |
| COc1ccc([C@@H](C)NC(=O)c2ccc3c(c2)/C(=C(/Nc2ccc(CN4CCCCC4)cc2)c2ccccc2)C(=O)N3)cc1 [Compound 21, (3Z)-N-[(1R)-1-(4-methoxyphenyl)ethyl]-2-oxo-3-(phenyl{[4-(piperidin-1-ylmethyl)phenyl]amino}methylene)indoline-5-carboxamide] | 78.2% | 1700 nM | 320 nM | 410 nM | 20 nM | 87% | 5300 nM | 1480 nM | > 30000 nM | 100 to 110 µM (≈ 58.7 to 64.5 µg/mL) | < 10 µM |
| COc1cccc([C@@H](C)NC(=O)c2ccc3c(c2)/C(=C(/Nc2ccc(CN4CCCCC4)cc2)c2ccccc2)C(=O)N3)c1 [Compound 22, (3Z)-N-[(1R)-1-(3-methoxyphenyl)ethyl]-2-oxo-3-(phenyl{[4-(piperidin-1-ylmethyl)phenyl]amino}methylene)indoline-5-carboxamide] | 88% | 110 nM | 20 nM | 40 nM | 20 nM | 83.8% | 1060 nM | < 10 nM | > 30000 nM | 110 to 120 µM (≈ 64.5 to 70.4 µg/mL) | < 10 µM |
| C[C@@H](NC(=O)c1ccc2c(c1)/C(=C(/Nc1ccc(CN3CCCCC3)cc1)c1ccccc1)C(=O)N2)c1ccc(F)cc1 [Compound 23, (3Z)-N-[(1R)-1-(4-fluorophenyl)ethyl]-2-oxo-3-(phenyl{[4-(piperidin-1-ylmethyl)phenyl]amino}methylene)indoline-5-carboxamide] | 92.1% | 180 nM | 40 nM | 40 nM | 20 nM | 91.1% | 920 nM | < 10 nM | 15300 nM | 110 to 120 µM (≈ 63.2 to 69 µg/mL) | < 10 µM |
| COc1cccc([C@@H](C)NC(=O)c2ccc3c(c2)/C(=C(/Nc2cccc(CN4CCCCC4)c2)c2ccccc2)C(=O)N3)c1 [Compound 24, (3Z)-N-[(1R)-1-(3-methoxyphenyl)ethyl]-2-oxo-3-(phenyl{[3-(piperidin-1-ylmethyl)phenyl]amino}methylene)indoline-5-carboxamide] | 76.8% | 880 nM | 290 nM | 380 nM | 80 nM | 13.7% | 6090 nM | 420 nM | 11800 nM | 110 to 120 µM (≈ 64.5 to 70.4 µg/mL) | < 10 µM |
